# Literature values, collected in patent US6348583B1, “Poly(ether-thioether), poly(ether-sulfoxide) and poly(ether-sulfone) nucleic acids” (Bio-Rad Laboratories, Inc., priority 1999, dated 2002).
# Like-named read-outs stand apart in the source and are kept apart here.
# Assays:
# [1] = aqueous buffers
# dA10 = conditions: duplex with dA10
substance,measurement,setting,value
"d(CpT)8: methylphosphonate oligonucleotide analog, SEQ ID NO:21 (DNA CTCTCTCTCTCTCTCT; methylphosphonate backbone, further chemistry not given here)",solubility,[1]; result in words,soluble up to millimolar concentrations
"d(ApG)8: methylphosphonate oligonucleotide analog, SEQ ID NO:22 (DNA GAGAGAGAGAGAGAGA; methylphosphonate backbone, further chemistry not given here)",solubility,[1],less than 0.1 mM
"dT10: native DNA dT10, duplex with dA10 (SEQ ID NO:18) (TTTTTTTTTT)",Tm value,dA10,about 24 °C
